In the test the target is T1, small-conductance Ca2+-activated K+ channels (SK channels, subtype 2) (Homo sapiens, UniProt Q9H2S1).
T1 construct: expressed in transfected cells; host or cells: HEK293
In words: whole-cell patch-clamp of ionic current through SK2 channels in HEK293 cells (SC100). The settings on record: whole-cell patch-clamp, HEK293 cells expressing SK2 channels; concentration that increases the basal current by 100%. The class given is cell-based. In a few lines: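 Whole-cell patch-clamp recording of current in HEK293 cells expressing SK2 channels. SC100 is the compound concentration that increases basal current by 100%.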
Regarding `COC(C)c1cc(NC2CCC(F)(F)CC2)nc(-n2ccc(C3CC3)n2)n1` (stereo not drawn) [IN11196-026-P1, 2-(3-cyclopropyl-1H-pyrazol-1-yl)-N-(4,4-difluorocyclohexyl)-6-(1-methoxyethyl)pyrimidin-4-amine], the “SC100 (μM)” value was “+ (+ means >1 uM)”.

Take `[2H]C1([2H])OC([2H])([2H])C([2H])([2H])N(c2cc(NC3CCC(F)(F)CC3)nc(-n3ccc(C)n3)n2)C1([2H])[2H]` [IN11196-039-P1]: the “SC100 (μM)” value is recorded as “++ (++ means 200 nM-1000 nM)”.

Take `CC1=NN(c2nc(NC3CCC(F)(F)CC3)cc(N3CCOCC3)n2)CC1` [IN11196-041-P1, N-(4,4-difluorocyclohexyl)-2-(3-methyl-4,5-dihydro-1H-pyrazol-1-yl)-6-morpholinopyrimidin-4-amine]: the “SC100 (μM)” value is reported as “+ (+ means >1 uM)”.

In the case of `COc1c(NC2CCC(F)(F)CC2)nc(-c2nc(C)cs2)n(CC#N)c1=O` [IN11196-065-P1], the “SC100 (μM)” value is given as “+ (+ means >1 uM)”.

Take `Cc1csc(-c2nc(NC3CCC(F)(F)CC3)cc(-c3ccccn3)n2)n1` [IN11196-080-P1]: the “SC100 (μM)” value is given as “+ (+ means >1 uM)”.

With `Cc1ccc(-c2nc(NC3CCC(F)(F)CC3)cc(N3CCOCC3)n2)[nH]1` [IN11196-081-P1, N-(4,4-difluorocyclohexyl)-2-(5-methyl-1H-pyrrol-2-yl)-6-morpholino pyrimidin-4-amine], the “SC100 (μM)” value is recorded as “+ (+ means >1 uM)”.

Take `Cc1cc(NC2CCC(F)(F)CC2)nc(-n2cc3c(n2)CCC3)n1` [IN11216-001-P1]: the “SC100 (μM)” value is on record as “+ (+ means >1 uM)”.

For `CCOC(=O)c1cn(-c2nc(NC3CCC(F)(F)CC3)cc(N3CCOCC3)n2)nc1C` [IN11216-043-P1], the “SC100 (μM)” value is “+ (+ means >1 uM)”.

For the compound `Cc1nn(-c2nc(NC3CCC(F)(F)CC3)cc(N3CCOCC3)n2)cc1F` [IN11216-050-P1], the “SC100 (μM)” value was “++ (++ means 200 nM-1000 nM)”.

On to `Cc1cc(NC2CCC(F)(F)CC2)nc(-n2cc(-n3cc(F)c(C)n3)c(C)n2)n1` [IN11216-072-P1], for which the “SC100 (μM)” value is “+ (+ means >1 uM)”.

For `COc1nn(-c2nc(NC3CCC(F)(F)CC3)cc(N3CCOCC3)n2)cc1F` [IN11216-073-P1], the “SC100 (μM)” value is reported as “+++ (+++ means <200 nM)”.

With `FC1(F)CCC(Nc2cc(N3CCCOCC3)nc(-n3ccc(C4CC4)n3)n2)CC1` [IN11217-003-P1, 2-(3-cyclopropyl-1H-pyrazol-1-yl)-N-(4,4-difluorocyclohexyl)-6-(1,4-oxazepan-4-yl)pyrimidin-4-amine], the “SC100 (μM)” value is recorded as “++ (++ means 200 nM-1000 nM)”.

Turning to `Cc1ccn(-c2cc(COc3cccnn3)cc(NC3CCC(F)(F)CC3)n2)n1` [IN11217-056-P1, N-(4,4-difluorocyclohexyl)-6-(3-methyl-1H-pyrazol-1-yl)-4-((pyridazin-3-yloxy)methyl)pyridin-2-amine], the “SC100 (μM)” value is “++ (++ means 200 nM-1000 nM)”.

As for `OC(c1cc(NC2CCC(F)(F)CC2)nc(-n2ccc(C3CC3)n2)n1)C(F)(F)F` (stereo not drawn) [IN11217-068-P1, 1-(2-(3-cyclopropyl-1H-pyrazol-1-yl)-6-((4,4-difluorocyclohexyl)amino)pyrimidin-4-yl)-2,2,2-trifluoroethan-1-ol], the “SC100 (μM)” value is recorded as “+ (+ means >1 uM)”.

For `CCOCCc1cc(NC2CCC(F)(F)CC2)nc(-n2ccc(C3CC3)n2)n1` [IN11217-069-P1, 2-(3-cyclopropyl-1H-pyrazol-1-yl)-N-(4,4-difluorocyclohexyl)-6-(2-ethoxyethyl)pyrimidin-4-amine], the “SC100 (μM)” value is “+ (+ means >1 uM)”.

With `COc1cc(C)n(-c2nc(NC3CCC(F)(F)CC3)cc(N3CCOCC3)n2)n1` [IN11217-088-P1], the “SC100 (μM)” value is recorded as “+ (+ means >1 uM)”.

Turning to `CC(=O)N1CCC(Oc2cc(NC3CCC(F)(F)CC3)nc(-n3ccc(C)n3)c2)CC1` [IN11218-025-P1, 1-(4-((2-((4,4-difluorocyclohexyl)amino)-6-(3-methyl-1H-pyrazol-1-yl)pyridin-4-yl)oxy)piperidin-1-yl)ethan-1-one], the “SC100 (μM)” value was “++ (++ means 200 nM-1000 nM)”.

Turning to `Cc1cc(NC2CCC(F)(F)CC2)nc(-n2ccc(C3(N)CC3)n2)n1` [IN11218-026-P1, 2-(3-(1-aminocyclopropyl)-1H-pyrazol-1-yl)-N-(4,4-difluorocyclohexyl)-6-methylpyrimidin-4-amine hydrogen chloride], the “SC100 (μM)” value is reported as “+ (+ means >1 uM)”.

Regarding `Cc1csc(-c2nc(NC3CCC(F)(F)CC3)cc(-c3ccccc3)n2)n1` [IN11218-030-P1], the “SC100 (μM)” value is “++ (++ means 200 nM-1000 nM)”.

As for `Cc1csc(-c2nc(NC3CCC(F)(F)CC3)cc(C(C)(C)C)n2)n1` [IN11220-039-P1, 6-(tert-butyl)-N-(4,4-difluorocyclohexyl)-2-(4-methylthiazol-2-yl)pyrimidin-4-amine], the “SC100 (μM)” value is given as “++ (++ means 200 nM-1000 nM)”.

As for `Cc1ccnn1-c1nc(NC2CCC(F)(F)CC2)cc(N2CCOCC2)n1` [IN11237-056-P1], the “SC100 (μM)” value was “+ (+ means >1 uM)”.

`CCOC(=O)c1cnc(-c2nc(C)cs2)nc1NC1CCC(F)(F)CC1` [IN11238-035-P1, ethyl 4-((4,4-difluorocyclohexyl)amino)-2-(4-methylthiazol-2-yl)pyrimidine-5-carboxylate]: the “SC100 (μM)” value is “+ (+ means >1 uM)”.

Turning to `Cc1csc(-c2ncc(CO)c(NC3CCC(F)(F)CC3)n2)n1` [IN11238-040-P1, (4-((4,4-difluorocyclohexyl)amino)-2-(4-methylthiazol-2-yl)pyrimidin-5-yl) methanol], the “SC100 (μM)” value is “+ (+ means >1 uM)”.

For the compound `COCc1cnc(-c2nc(C)cs2)nc1NC1CCC(F)(F)CC1` [IN11238-046-P1], the “SC100 (μM)” value was “+ (+ means >1 uM)”.

As for `NC(=O)OCc1cc(NC2CCC(F)(F)CC2)nc(-n2ccc(C3CC3)n2)n1` [IN11239-001-P1, (2-(3-cyclopropyl-1H-pyrazol-1-yl)-6-((4,4-difluorocyclohexyl)amino)pyrimidin-4-yl)methyl carbamate], the “SC100 (μM)” value is listed as “++ (++ means 200 nM-1000 nM)”.

`Cc1csc(-c2nc(C)cc(NC3CCC(F)(F)CC3)n2)c1` [IN11239-029-P1, N-(4,4-difluorocyclohexyl)-6-methyl-2-(4-methylthiophen-2-yl)pyrimidin-4-amine]: the “SC100 (μM)” value is “+ (+ means >1 uM)”.

As to `CC(=O)c1ccn(-c2nc(NC3CCC(F)(F)CC3)cc(N3CCOCC3)n2)n1` [IN11243-031-P1], the “SC100 (μM)” value is listed as “+ (+ means >1 uM)”.

Turning to `CC(F)c1ccn(-c2nc(NC3CCC(F)(F)CC3)cc(N3CCOCC3)n2)n1` (stereo not drawn) [IN11243-041-P1], the “SC100 (μM)” value was “+++ (+++ means <200 nM)”.

As to `Cc1cc(NC2CCC(F)(F)CC2)nc(-n2ccc(C(C)F)n2)n1` (stereo not drawn) [IN11243-042-P1, N-(4,4-difluorocyclohexyl)-2-(3-(1-fluoroethyl)-1H-pyrazol-1-yl)-6-methylpyrimidin-4-amine], the “SC100 (μM)” value is reported as “++ (++ means 200 nM-1000 nM)”.

In the case of `CC(F)(F)c1ccn(-c2nc(NC3CCC(F)(F)CC3)cc(N3CCOCC3)n2)n1` [IN11243-050-P2], the “SC100 (μM)” value is listed as “++ (++ means 200 nM-1000 nM)”.

In the case of `Cc1cc(NC2CCC(F)(F)CC2)nc(-n2ccc(C3=CCCC3)n2)n1` [IN11250-007-P1, 2-(3-(cyclopent-1-en-1-yl)-1H-pyrazol-1-yl)-N-(4,4-difluorocyclohexyl)-6-methylpyrimidin-4-amine], the “SC100 (μM)” value is “+ (+ means >1 uM)”.

Take `Cc1cc(NC2CCC(F)(F)CC2)nc(-n2ccc(C3CCCC3)n2)n1` [IN11250-017-P1, 2-(3-cyclopentyl-1H-pyrazol-1-yl)-N-(4,4-difluorocyclohexyl)-6-methylpyrimidin-4-amine]: the “SC100 (μM)” value was “+ (+ means >1 uM)”.

As for `C=Cc1ccn(-c2nc(C)cc(NC3CCC(F)(F)CC3)n2)n1` [IN11250-031-P1], the “SC100 (μM)” value was “+ (+ means >1 uM)”.

As to `Cc1ccn(-c2nc(NCCO)cc(NC3CCC(F)(F)CC3)n2)n1` [IN11250-032-P1], the “SC100 (μM)” value is recorded as “++ (++ means 200 nM-1000 nM)”.

As to `Cc1cc(NC2CCC(F)(F)CC2)nc(-n2ccc(C3(O)CC3)n2)n1` [IN11251-011-P1, 1-(1-(4-((4,4-difluorocyclohexyl)amino)-6-methylpyrimidin-2-yl)-1H-pyrazol-3-yl)cyclopropan-1-ol], the “SC100 (μM)” value was “+ (+ means >1 uM)”.

Take `CCC(O)c1ccn(-c2nc(C)cc(NC3CCC(F)(F)CC3)n2)n1` (stereo not drawn) [IN11251-011-P2, 1-(1-(4-((4,4-difluorocyclohexyl)amino)-6-methylpyrimidin-2-yl)-1H-pyrazol-3-yl)propan-1-ol]: the “SC100 (μM)” value was “+ (+ means >1 uM)”.

As to `Cc1cc(NC2CCC(F)(F)CC2)nc(-n2ccc(C(=O)OC(C)C)n2)n1` [IN11251-020-P1, isopropyl 1-(4-((4,4-difluorocyclohexyl)amino)-6-methylpyrimidin-2-yl)-1H-pyrazole-3-carboxylate], the “SC100 (μM)” value was “+ (+ means >1 uM)”.

For `COC(=O)N1CCC(O)(c2cc(NC3CCC(F)(F)CC3)nc(-n3ccc(C)n3)c2)C1` (stereo not drawn) [IN11251-035-P1, methyl 3-(2-((4,4-difluorocyclohexyl)amino)-6-(3-methyl-1H-pyrazol-1-yl)pyridin-4-yl)-3-hydroxypyrrolidine-1-carboxylate], the “SC100 (μM)” value was “++ (++ means 200 nM-1000 nM)”.

`COC(=O)N(C)Cc1cc(NC2CCC(F)(F)CC2)nc(-c2nc(C)cs2)c1` [IN11251-043-P1]: the “SC100 (μM)” value was “++ (++ means 200 nM-1000 nM)”.

As to `Cc1cc(NC2CCC(F)(F)CC2)nc(CO)n1` [IN11273-001-P1, (4-((4,4-difluorocyclohexyl)amino)-6-methylpyrimidin-2-yl) methanol], the “SC100 (μM)” value is reported as “+ (+ means >1 uM)”.

`COC(=O)c1nc(C)cc(NC2CCC(F)(F)CC2)n1` [IN11273-006-P1, methyl 4-((4,4-difluorocyclohexyl)amino)-6-methylpyrimidine-2-carboxylate]: the “SC100 (μM)” value was “+ (+ means >1 uM)”.

For `Cc1cc(NC2CCC(F)(F)CC2)nc(Cn2ccc(C)n2)n1` [IN11273-015-P1, N-(4,4-difluorocyclohexyl)-6-methyl-2-((3-methyl-1H-pyrazol-1-yl)methyl)pyrimidin-4-amine], the “SC100 (μM)” value was “+ (+ means >1 uM)”.

The values above are taken from patent publication US10774064B2 (Cadent Therapeutics, Inc., priority 2016, dated 2020).
